pKi: −log10 of the molar value.
Target: T1, LXRα (Homo sapiens, UniProt Q13133)
T1 construct: were made by cloning the appropriate full-length cDNAs into the pBacPakhis1 vector; poly-His (pBacPakhis1) (N); made in house; host or cells: Sf9 insect cells (baculovirus), crude lysate
Experiment: Scintillation proximity assay (SPA), competition with 3H-24,25-epoxycholesterol
Assay type: binding
Conditions: average Ki with respect to LXR α
Experimental: The SPA assay measures the radioactive signal generated by the binding of ^3H-24,25-epoxycholesterol to LXRα or LXRβ. The basis of the assay is the use of SPA beads containing a scintillant, such that when binding to the receptor brings the labeled ligand into proximity with the bead, the energy from the label stimulates the scintillant to emit light. The light is measured using a standard microplate scintillation reader. The ability of a ligand to bind to a receptor can be measured by assessing the degree to which the compound can compete off a radiolabelled ligand with known affinity for the receptor.
1. Label: ^3H-24,25-epoxy-cholesterol (Amersham)
2. LXRα lysate: Baculovirus expressed LXRα/RXR heterodimer with RXR having a 6-HIS tag produced as a crude lysate
4. SPA beads: Ysi copper His-tag SPA beads (Amersham)
Baculovirus expression plasmids for human RXR α (accession No NM_002957), LXR a (accession No U22662), LXR β (accession No U07132) were made by cloning the appropriate full-length cDNAs into the pBacPakhis1 vector (Clontech, CA) following standard procedures. Insertion of the cDNAs into the pBAcPakhis1 vector polylinker created an in frame fusion to the cDNA to an N-terminal poly-His tag present in pBacPakhis1. Correct cloning was confirmed by restriction mapping, and/or sequencing.
Cell lysates were prepared by infecting healthy, Sf9 insect cells at a density of approximately 1.25×10^6/ml at 27° C., in a total volume of 500 mL per 1 L sized spinner flasks, cultured under standard conditions. To prepare LXRα lysate, insect cells were co-transfected with the LXR α expression cassette at an M.O.I of 0.5 to 0.8 and with the RXR expression cassette at a M.O.I. of approximately 1.6. To prepare LXRβ lysate, insect cells were co-transfected with the LXR β expression cassette at an M.O.I of approximately 1.6 and with the RXR expression cassette at a M.O.I. of approximately 1.6. In both cases cells were incubated for 48 hours at 27° C. with constant shaking prior to harvesting.
After incubation, cells were harvested by centrifugation and pelleted. Cell pellets were resuspended in two volumes of ice-cold freshly prepared extraction buffer (20 mM Tris pH 8.0, 10 mM Imidazole, 400 mM NaCl, containing one EDTA free protease inhibitor tablet (Roche Catalog No: 1836170) per 10 ml of extraction buffer).
Cells were homogenized slowly on ice using a Douncer to achieve 80-90% cell lysis. The homogenate was centrifuged in a pre-chilled rotor (Ti50 or Ti70, or equivalent) at 45,000 rpm for 30 minutes at 4° C. Aliquots of the supernatant were frozen on dry ice and stored frozen at −80° C. until quantification and quality control. Aliquots of the lysates were tested in the SPA assay to ensure lot to lot consistency, and via SDS-PAGE analysis after purification using Ni-NTA Resin (Qiagen) and adjusted for protein concentration and expression level prior to use in screening assays.
[^3H] 24,25 Epoxycholesterol (EC) solution: For a single 384-well plate (or 400 wells), 21 μL of [^3H] EC (specific activity 76.5 Ci/mmol, concentration 3.2 mCi/mL) was added to 4.4 mL of 2×SPA buffer to provide for a final concentration of 200 nM. For each additional 384-well plate, an additional 19.1 μL of [^3H] EC was added to 4.0 mL of additional 2×SPA buffer. The final concentration of [^3H] EC in the well was 50 nM.
LXRα lysate (prepared as above) was diluted with protein lysate dilution buffer. 1400 μL of diluted LXRα lysate was prepared per 384-well plate, (or 200 wells) and 1120 μL of diluted LXRα lysate was prepared for each additional 384-well plate.
SPA bead solution: For a 384-well plate (or 400 wells), 3.75 mL of 2×SPA buffer w/o EDTA, 2.25 mL of H2O, and 1.5 mL of Ysi His-tag SPA beads (vortex well before taking) were mixed together. For each additional 384-well plate, an additional 3.5 mL of 2×SPA buffer w/o EDTA, 2.1 mL of H2O, and 1.4 mL of Ysi His-tag SPA beads were mixed together. […]

T1 sequence (Q13133 whole entry): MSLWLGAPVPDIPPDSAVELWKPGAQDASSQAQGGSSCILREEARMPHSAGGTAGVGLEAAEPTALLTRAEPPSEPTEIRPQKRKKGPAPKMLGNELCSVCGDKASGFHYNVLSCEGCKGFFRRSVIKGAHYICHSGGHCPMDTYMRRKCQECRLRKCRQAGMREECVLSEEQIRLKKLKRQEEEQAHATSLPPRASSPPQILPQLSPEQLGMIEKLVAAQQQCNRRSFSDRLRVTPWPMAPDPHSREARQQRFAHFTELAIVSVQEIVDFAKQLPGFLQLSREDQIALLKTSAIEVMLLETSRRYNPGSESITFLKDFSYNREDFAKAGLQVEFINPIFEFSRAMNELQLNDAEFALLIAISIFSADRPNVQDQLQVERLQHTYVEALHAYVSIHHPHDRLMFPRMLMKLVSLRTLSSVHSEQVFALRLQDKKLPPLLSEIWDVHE
T1 sequence (P19793 whole entry, further chain): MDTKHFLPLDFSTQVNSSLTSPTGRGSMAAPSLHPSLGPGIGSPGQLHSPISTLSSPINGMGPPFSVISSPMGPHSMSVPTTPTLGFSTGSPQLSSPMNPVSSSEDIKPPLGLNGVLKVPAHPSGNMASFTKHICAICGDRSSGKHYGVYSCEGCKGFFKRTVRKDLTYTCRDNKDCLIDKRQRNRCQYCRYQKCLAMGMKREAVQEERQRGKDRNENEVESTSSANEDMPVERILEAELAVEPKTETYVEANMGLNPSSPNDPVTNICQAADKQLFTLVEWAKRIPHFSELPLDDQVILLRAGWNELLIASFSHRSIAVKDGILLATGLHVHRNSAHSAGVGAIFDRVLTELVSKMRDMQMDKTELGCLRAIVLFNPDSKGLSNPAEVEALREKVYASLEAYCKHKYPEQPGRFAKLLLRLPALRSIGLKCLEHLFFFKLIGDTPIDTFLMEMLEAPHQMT

Structure (SMILES) | pKi
Cc1ccc(Cn2c(C#CC(C)(C)O)cc3ccccc3c2=O)c(C)c1 [2-(2,4-dimethylbenzyl)-3-(3-hydroxy-3-methylbut-1-ynyl)-2H-isoquinolin-1-one] | < 6.30
Cc1ccc(Cn2c(-c3ccc(Oc4ccccc4)cc3)cc3ccccc3c2=O)c(C)c1 [2-(2,4-dimethylbenzyl)-3-(4-phenoxyphenyl)-2H-isoquinolin-1-one] | 6.82 to 8.00
Cc1cccc(-c2cc3ccccc3c(=O)n2Cc2ccc(C)cc2C)c1 [2-(2,4-dimethylbenzyl)-3-m-tolyl-2H-isoquinolin-1-one] | 6.30 to 6.82
Cc1ccc(Cn2c(-c3ccsc3)cc3ccccc3c2=O)c(C)c1 [2-(2,4-dimethylbenzyl)-3-thiophen-3-yl-2H-isoquinolin-1-one] | < 6.30
Cc1cccc(-c2cc3ccccc3c(=O)n2Cc2ccccc2)c1 [2-benzyl-3-m-tolyl-2H-isoquinolin-1-one] | < 6.30
O=c1c2c(Cl)cccc2cc(-c2cc(-c3cc(C(F)(F)F)cc(C(F)(F)F)c3)co2)n1Cc1ccc(F)cc1F [3-[4-(3,5-bis-trifluoromethylphenyl)furan-2-yl]-8-chloro-2-(2,4-difluorobenzyl)-2H-isoquinolin-1-one] | 6.30 to 6.82
Nc1ccc(-c2coc(-c3cc4cccc(Cl)c4c(=O)n3Cc3ccc(F)cc3F)c2)cc1C(F)(F)F [3-[4-(4-amino-3-trifluoromethylphenyl)furan-2-yl]-8-chloro-2-(2,4-difluorobenzyl)-2H-isoquinolin-1-one] | 6.82 to 8.00
O=c1c2c(Cl)cccc2cc(-c2ccc(Oc3ccccc3)cc2)n1Cc1ccc(F)cc1F [8-chloro-2-(2,4-difluorobenzyl)-3-(4-phenoxyphenyl)-2H-isoquinolin-1-one] | 6.82 to 8.00

Further lines, results first:

pKi | Structure (SMILES)
6.82 to 8.00 | O=c1c2c(Cl)cccc2cc(-c2ccc(Oc3cnccn3)cc2)n1Cc1ccc(F)cc1F [8-chloro-2-(2,4-difluorobenzyl)-3-[4-(pyrazin-2-yloxy)phenyl]-2H-isoquinolin-1-one]
6.82 to 8.00 | CS(=O)(=O)c1ccc(-c2ccc(-c3cc4cccc(Cl)c4c(=O)n3Cc3ccc(F)cc3F)s2)cc1 [8-chloro-2-(2,4-difluorobenzyl)-3-[5-(4-methanesulfonylphenyl)thiophen-2-yl]-2H-isoquinolin-1-one]
6.82 to 8.00 | O=c1c2c(Cl)cccc2cc(-c2ccc(Oc3ccccc3)cc2)n1CC1CCCCC1 [8-chloro-2-cyclohexylmethyl-3-(4-phenoxyphenyl)-2H-isoquinolin-1-one]
6.82 to 8.00 | O=c1c2c(Cl)cccc2cc(-c2ccc(Oc3ccccc3)cc2)n1Cc1cccs1 [8-chloro-3-(4-phenoxyphenyl)-2-thiophen-2-ylmethyl-2H-isoquinolin-1-one]
< 6.30 | CCOc1ccc(-c2csc(-c3cc4cccc(Cl)c4c(=O)n3Cc3ccc(F)cc3F)c2)cc1Cl [8-chloro-3-[4-(3-chloro-4-ethoxyphenyl)thiophen-2-yl]-2-(2,4-difluorobenzyl)-2H-isoquinolin-1-one]
6.82 to 8.00 | Cc1ccc(Cn2c(-c3ccc(Oc4ccccc4)cc3)cc3cccc(C)c3c2=O)cc1 [8-methyl-2-(4-methylbenzyl)-3-(4-phenoxyphenyl)-2H-isoquinolin-1-one]
